These results are taken from patent US20240116985A1, “STAPLED PEPTIDES AND METHODS THEREOF” (priority 2020, published 2024).

≈ marks a conversion by molar mass, not a printed value. Where two headings read alike, the source gives them in different places.

What is called chromatographic logD is a lipophilicity value derived from retention on a column. By Solubility is commonly meant the concentration that dissolves in the medium under given conditions.

Data set [1] deals with T1, full-length beta-Catenin (Uniprot ID P35222) (Homo sapiens, UniProt P35222).
T1 construct: 10 nM full-length beta-Catenin (Uniprot ID P35222)
T1 sequence (P35222 1-781): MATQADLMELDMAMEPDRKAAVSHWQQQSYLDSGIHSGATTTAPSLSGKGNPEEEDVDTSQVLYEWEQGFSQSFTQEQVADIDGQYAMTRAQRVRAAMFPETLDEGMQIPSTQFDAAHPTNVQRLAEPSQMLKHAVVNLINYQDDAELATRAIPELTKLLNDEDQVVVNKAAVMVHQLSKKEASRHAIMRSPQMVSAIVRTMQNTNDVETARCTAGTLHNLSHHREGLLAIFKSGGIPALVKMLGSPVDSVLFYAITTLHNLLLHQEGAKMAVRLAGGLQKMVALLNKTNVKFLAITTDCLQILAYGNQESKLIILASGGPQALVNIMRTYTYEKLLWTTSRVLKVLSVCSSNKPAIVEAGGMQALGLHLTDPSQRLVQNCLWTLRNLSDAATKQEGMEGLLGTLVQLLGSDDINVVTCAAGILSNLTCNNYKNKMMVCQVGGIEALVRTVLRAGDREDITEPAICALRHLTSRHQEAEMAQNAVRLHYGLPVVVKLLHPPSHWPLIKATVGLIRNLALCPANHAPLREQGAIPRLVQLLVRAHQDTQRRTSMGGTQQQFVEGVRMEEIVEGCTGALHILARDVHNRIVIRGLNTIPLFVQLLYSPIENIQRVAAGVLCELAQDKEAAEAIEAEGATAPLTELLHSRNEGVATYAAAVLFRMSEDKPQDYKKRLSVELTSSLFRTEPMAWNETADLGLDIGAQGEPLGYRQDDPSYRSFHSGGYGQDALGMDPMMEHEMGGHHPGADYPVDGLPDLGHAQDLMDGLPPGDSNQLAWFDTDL
Kind of data set: Fluorescence polarization IC50 (beta-catenin / 5FAM-TCF4 10-53 competition). It counts as binding. (In general: Fluorescence polarisation rises when a labelled molecule tumbles more slowly, as on binding a larger partner.)

A short description of data set [2]: CHI Log D procedure. The data set is classed as physicochemical. The settings on record: for chromatographic logD: pH 7.4, CHI Log D; for CHI Log D: pH 7.4.
Data set [3] in a line: Solubility in PBS. It counts as physicochemical. A digest of the protocol: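 The PBS solution was ultracentrifuged and the supernatant analyzed by HPLC. Its peak area was divided by that of a 50 μM peptide DMSO reference injection and multiplied by 50 uM to give solubility.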
Where [4] appears, read: fluorescence polarization, read-out: beta-Catenin FP IC50.

As for `CC(=O)N1CCC[C@]12CC=CCCCC1(CCCC=CCCCCCC[C@@](C)(C(=O)N[C@@H](Cc3ccccc3)C(=O)N[C@@H](Cc3csc4ccccc34)C(=O)N[C@@H](CCC(N)=O)C(N)=O)NC(=O)[C@H](CCC(N)=O)NC(=O)[C@H](Cc3ccccc3)NC(=O)[C@H](C)NC(=O)[C@H](C)NC(=O)[C@H](CCC(=O)O)NC(=O)[C@H](CC(=O)O)NC1=O)NC(=O)[C@H](CC(F)F)NC(=O)[C@H](CC(=O)O)NC2=O` (stereo partly drawn) [I-503, Ac-PL3-Asp-HF2CA-B5-Asp-Glu-Ala-Ala-Phe-Gln-S8-Phe-BztA-Gln-NH2], the IC50 in data set [1] (setting [4]) came to 84 nM. In addition, the chromatographic logD in data set [2] stood at 2.09. The Solubility in data set [3] (Solubility (uM)) was 33 µM (≈ 62.4 µg/mL).
On to `CC(=O)N1CCC[C@]12CC=CCCCC1(CCCC=CCCCCCC[C@@](C)(C(=O)N[C@@H](Cc3ccccc3)C(=O)N[C@@H](Cc3csc4ccccc34)C(=O)N[C@@H](Cc3c[nH]cn3)C(N)=O)NC(=O)[C@H](CCC(N)=O)NC(=O)[C@H](Cc3ccccc3)NC(=O)[C@H](C)NC(=O)[C@H](C)NC(=O)[C@H](CCC(=O)O)NC(=O)[C@H](CC(=O)O)NC1=O)NC(=O)[C@H](CC(F)(F)F)NC(=O)[C@H](CC(=O)O)NC2=O` (stereo partly drawn) [I-504, Ac-PL3-Asp-F3CA-B5-Asp-Glu-Ala-Ala-Phe-Gln-S8-Phe-BztA-His-NH2], for which the IC50 in data set [1] (setting [4]) was 65 nM. In addition, the chromatographic logD in data set [2] turned out to be 2.22. This compound displayed a Solubility in data set [3] (Solubility (uM)) of 18 µM (≈ 34.5 µg/mL).
On to `CC(=O)N1CCC[C@]12CC=CCCCC1(CCCC=CCCCCCC[C@@](C)(C(=O)N[C@@H](Cc3ccccc3)C(=O)N[C@@H](Cc3csc4ccccc34)C(=O)N[C@H](C(N)=O)[C@@H](C)O)NC(=O)[C@H](CCC(N)=O)NC(=O)[C@H](Cc3ccccc3)NC(=O)[C@H](C)NC(=O)[C@H](C)NC(=O)[C@H](CCC(=O)O)NC(=O)[C@H](CC(=O)O)NC1=O)NC(=O)[C@H](C)NC(=O)[C@H](CC(=O)O)NC2=O` (stereo partly drawn) [I-507, Ac-PL3-Asp-Ala-B5-Asp-Glu-Ala-Ala-Phe-Gln-S8-Phe-BztA-Thr-NH2], for which the IC50 in data set [1] (setting [4]) and in data set [1] (read-out: FP EC50) was 192 nM throughout. Moreover, in data set [2], the “CHI Log D” value was 2.079. In data set [3], the “Solubility” value is 47 µM (≈ 85.3 µg/mL).
On to `CC(=O)N1CCC[C@]12CC=CCCCC1(CCCC=CCCCCCC[C@@](C)(C(=O)N[C@@H](Cc3ccccc3)C(=O)N[C@@H](Cc3csc4ccccc34)C(=O)N[C@H](C(N)=O)[C@@H](C)O)NC(=O)[C@H](CCC(N)=O)NC(=O)[C@H](Cc3ccccc3)NC(=O)[C@H](C)NC(=O)[C@H](C)NC(=O)[C@H](CCC(=O)O)NC(=O)[C@H](CC(=O)O)NC1=O)NC(=O)[C@H](C)NC(=O)[C@H](CC(=O)O)NC2=O` (stereo partly drawn) [I-508, Ac-PL3-Asp-Ala-B5-Asp-Glu-Ala-Ala-Phe-Gln-S8-Phe-BztA-Thr-NH2], for which the IC50 in data set [1] (setting [4]) and in data set [1] (read-out: FP EC50) was 73 nM each time. Further, the “CHI Log D” value in data set [2] is reported as 2.126. Further, the “Solubility” value in data set [3] worked out at 50 µM (≈ 90.7 µg/mL).
In the case of `CC[C@H](NC(=O)[C@H](Cc1csc2ccccc12)NC(=O)[C@H](Cc1ccccc1)NC(=O)[C@]1(C)CCCCCCC=CCCCC2(CCCC=CC[C@]3(CCCN3C(C)=O)C(=O)N[C@@H](CC(=O)O)C(=O)N[C@@H](C)C(=O)N2)C(=O)N[C@@H](CC(=O)O)C(=O)N[C@@H](CCC(=O)O)C(=O)N[C@@H](C)C(=O)N[C@@H](C)C(=O)N[C@@H](Cc2ccccc2)C(=O)N[C@@H](CCC(N)=O)C(=O)N1)C(N)=O` (stereo partly drawn) [I-509, Ac-PL3-Asp-Ala-B5-Asp-Glu-Ala-Ala-Phe-Gln-S8-Phe-BztA-Abu-NH2], the IC50 in data set [1] (setting [4]) was determined as 99 nM. In data set [2], this compound gave a chromatographic logD of 2.16. The Solubility in data set [3] (Solubility (uM)) stood at 41 µM (≈ 73.7 µg/mL).
In the case of `COc1ccccc1C[C@H](NC(=O)[C@]1(C)CCCCCCC=CCCCC2(CCCC=CC[C@]3(CCCN3C(C)=O)C(=O)N[C@@H](CC(=O)O)C(=O)N[C@@H](C)C(=O)N2)C(=O)N[C@@H](CC(=O)O)C(=O)N[C@@H](CCC(=O)O)C(=O)N[C@@H](C)C(=O)N[C@@H](C)C(=O)N[C@@H](Cc2ccccc2)C(=O)N[C@@H](CC(N)=O)C(=O)N1)C(=O)N[C@@H](Cc1csc2ccccc12)C(=O)N[C@@H](Cc1c[nH]cn1)C(N)=O` (stereo partly drawn) [I-510, Ac-PL3-Asp-Ala-B5-Asp-Glu-Ala-Ala-Phe-Asn-S8-2OMeF-BztA-His-NH2], the IC50 in data set [1] (setting [4]) and in data set [1] (read-out: FP EC50) was 128 nM in each case. Moreover, the “CHI Log D” value in data set [2] stood at 2.057. Besides, the “Solubility” value in data set [3] amounted to 43 µM (≈ 80.2 µg/mL).
For the compound `COc1ccccc1C[C@H](NC(=O)[C@]1(C)CCCCCCC=CCCCC2(CCCC=CC[C@]3(CCCN3C(C)=O)C(=O)N[C@@H](CC(=O)O)C(=O)N[C@@H](C)C(=O)N2)C(=O)N[C@@H](CC(=O)O)C(=O)N[C@@H](CCC(=O)O)C(=O)N[C@@H](C)C(=O)N[C@@H](C)C(=O)N[C@@H](Cc2ccccc2)C(=O)N[C@@H](CC(N)=O)C(=O)N1)C(=O)N[C@@H](Cc1csc2ccccc12)C(=O)N[C@@H](Cc1c[nH]cn1)C(N)=O` (stereo partly drawn) [I-511, Ac-PL3-Asp-Ala-B5-Asp-Glu-Ala-Ala-Phe-Asn-S8-2OMeF-BztA-His-NH2], the IC50 in data set [1] (setting [4]) and in data set [1] (read-out: FP EC50) was 40 nM in each case. In addition, the “CHI Log D” value in data set [2] worked out at 2.099. Besides, in data set [3], the “Solubility” value amounted to 29 µM (≈ 54.1 µg/mL).
With `CC(=O)N1CCC[C@]12CC=CCCCC1(CCCC=CCCCCCC[C@@](C)(C(=O)N[C@@H](Cc3ccccc3C(N)=O)C(=O)N[C@@H](Cc3csc4ccccc34)C(=O)N[C@@H](Cc3c[nH]cn3)C(N)=O)NC(=O)[C@H](CC(N)=O)NC(=O)[C@H](Cc3ccccc3)NC(=O)[C@H](C)NC(=O)[C@H](C)NC(=O)[C@H](CCC(=O)O)NC(=O)[C@H](CC(=O)O)NC1=O)NC(=O)[C@H](C)NC(=O)[C@H](CC(=O)O)NC2=O` (stereo partly drawn) [I-513, Ac-PL3-Asp-Ala-B5-Asp-Glu-Ala-Ala-Phe-Asn-S8-2CBMF-BztA-His-NH2], the IC50 in data set [1] (setting [4]) is 143 nM. For the same compound, the chromatographic logD in data set [2] was determined as 1.57. In addition, in data set [3], the “Solubility” value amounted to 50 µM (≈ 94 µg/mL).
Consider `CC(=O)N1CCC[C@]12CC=CCCCC1(CCCC=CCCCCCC[C@@](C)(C(=O)N[C@@H](Cc3ccsc3)C(=O)N[C@@H](Cc3csc4ccccc34)C(=O)N[C@@H](Cc3c[nH]cn3)C(N)=O)NC(=O)[C@H](CC(N)=O)NC(=O)[C@H](Cc3ccccc3)NC(=O)[C@H](C)NC(=O)[C@H](C)NC(=O)[C@H](CCC(=O)O)NC(=O)[C@H](CC(=O)O)NC1=O)NC(=O)[C@H](C)NC(=O)[C@H](CC(=O)O)NC2=O` (stereo partly drawn) [I-515, Ac-PL3-Asp-Ala-B5-Asp-Glu-Ala-Ala-Phe-Asn-S8-3Thi-BztA-His-NH2], for which the IC50 in data set [1] (setting [4]) and in data set [1] (read-out: FP EC50) was 54 nM each time. Further, the “CHI Log D” value in data set [2] was determined as 2.028. The “Solubility” value in data set [3] was determined as 46 µM (≈ 84.7 µg/mL).
In the case of `CC(=O)N1CCC[C@]12CC=CCCCC1(CCCC=CCCCCCC[C@@](C)(C(=O)N[C@@H](Cc3ccsc3)C(=O)N[C@@H](Cc3csc4ccccc34)C(=O)N[C@@H](Cc3c[nH]cn3)C(N)=O)NC(=O)[C@H](CC(N)=O)NC(=O)[C@H](Cc3ccccc3)NC(=O)[C@H](C)NC(=O)[C@H](C)NC(=O)[C@H](CCC(=O)O)NC(=O)[C@H](CC(=O)O)NC1=O)NC(=O)[C@H](C)NC(=O)[C@H](CC(=O)O)NC2=O` (stereo partly drawn) [I-516, Ac-PL3-Asp-Ala-B5-Asp-Glu-Ala-Ala-Phe-Asn-S8-3Thi-BztA-His-NH2], the IC50 in data set [1] (setting [4]) and in data set [1] (read-out: FP EC50) was 23 nM each time. In addition, in data set [2], the “CHI Log D” value is 2.072. Besides, the “Solubility” value in data set [3] was 42 µM (≈ 77.4 µg/mL).
Take `CC(=O)N1CCC[C@]12CC=CCCCC1(CCCC=CCCCCCC[C@@](C)(C(=O)N[C@@H](Cc3ccsc3)C(=O)N[C@@H](Cc3csc4ccccc34)C(=O)N[C@@H](CCC(N)=O)C(N)=O)NC(=O)[C@H](CC(N)=O)NC(=O)[C@H](Cc3ccccc3)NC(=O)[C@H](C)NC(=O)[C@H](C)NC(=O)[C@H](CCC(=O)O)NC(=O)[C@H](CC(=O)O)NC1=O)NC(=O)[C@H](C)NC(=O)[C@H](CC(=O)O)NC2=O` (stereo partly drawn) [I-518, Ac-PL3-Asp-Ala-B5-Asp-Glu-Ala-Ala-Phe-Asn-S8-3Thi-BztA-Gln-NH2]: the IC50 in data set [1] (setting [4]) and in data set [1] (read-out: FP EC50) was 143 nM in each case. Also, the “CHI Log D” value in data set [2] amounted to 1.966. In addition, the “Solubility” value in data set [3] came to 39 µM (≈ 71.5 µg/mL).
Regarding `CC[C@H](C)[C@@H]1NC(=O)[C@H](CC(=O)O)NC(=O)[C@]2(CC=CCCCC3(CCCC=CCCCCCC[C@@](C)(C(=O)N[C@@H](Cc4ccsc4)C(=O)N[C@@H](Cc4csc5ccccc45)C(=O)N[C@@H](CCC(N)=O)C(N)=O)NC(=O)[C@H](CC(N)=O)NC(=O)[C@H](Cc4ccccc4)NC(=O)[C@H](C)NC(=O)[C@H](C)NC(=O)[C@H](CCC(=O)O)NC(=O)[C@H](CC(=O)O)NC3=O)NC1=O)CCCN2C(C)=O` (stereo partly drawn) [I-520, Ac-PL3-Asp-Ile-B5-Asp-Glu-Ala-Ala-Phe-Asn-S8-3Thi-BztA-Gln-NH2], the IC50 in data set [1] (setting [4]) and in data set [1] (read-out: FP EC50) was 45 nM in each case. Further, the “CHI Log D” value in data set [2] is 2.313. In addition, in data set [3], the “Solubility” value was 50 µM (≈ 93.8 µg/mL).
